Measured values: patent US12495798B2, “Nicotinamide compound and herbicidal composition comprising compound” (KOREA RESEARCH INSTITUTE OF CHEMICAL TECHNOLOGY, priority 2019, dated 2025)

Legend:
Assay type in all cases: in vivo
[1] = tested on: corn; test: Phytotoxicity test for field crops (soil treatment test); parameters: key: 0 (no harm); 9 (complete withered)
Description: (§1) Experimental Example 4: Phytotoxicity Test for Field Crops (Soil Treatment Test)
(§2) Soil treatment was performed for sown crops and weeds in a square plastic pot having a surface area of 50 cm^2 filled with sterilized horticultural soil (pH 6.1, organic material 1.0%, clay 21%, silt 17%, sand 52%). As a fertilizer per pot, 0.5 g of horticultural mixed fertilizer (N:P:K=17:21:17) was treated by mixing with soil. Five kinds of crops such as rice, wheat, corn, soybean, and cotton were sown in each pot. One day after sowing, test compound solutions were made by diluting with the diluent (33% acetone, 0.1% Tween-20) so that the final treatment amount of the test compounds was 19˜300 g a.i./ha. The prepared test compound solutions were treated using a spray booth (SB6-016) at a treatment amount of 100 ml per 1 m^2 of treatment area. The treated crops were managed in greenhouse conditions (average temperature 30±5° C., light/dark=14/10 hours). External symptoms and phytotoxicity were visually investigated 10 and 20 days after treatment. In the evaluation of the phytotoxicity for the crop, the grade of 0 (no harm) to 9 (complete withered) was used. The results of Table 10 were obtained by evaluating phytotoxicity value to the untreated control.

[2] = tested on: soybean; test: as above; parameters: key: 0 (no harm); 9 (complete withered)
Description: as §1, §2

[3] = tested on: cotton; test: as above; parameters: key: 0 (no harm); 9 (complete withered)
Description: as §1, §2

[4] = tested on: rice; test: as above; parameters: key: 0 (no harm); 9 (complete withered)
Description: as §1, §2

[5] = tested on: wheat; test: as above; parameters: key: 0 (no harm); 9 (complete withered)
Description: as §1, §2

[6] = tested on: corn; test: Phytotoxicity test for upland field crops (foliar treatment test); parameters: key: 0 (no harm); 9 (complete withered)
Summary of the method: (§3)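 Post-emergence spray at 19–300 g a.i./ha (acetone/Tween-20 diluent, 100 ml/m²) onto greenhouse-grown plants. Damage rated 7 and 14 (optionally 21) days later on a 0–9 scale relative to untreated plants.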

[7] = tested on: soybean; test: as above; parameters: key: 0 (no harm); 9 (complete withered)
Summary of the method: as §3

[8] = tested on: cotton; test: as above; parameters: key: 0 (no harm); 9 (complete withered)
Summary of the method: as §3

[9] = tested on: rice; test: as above; parameters: key: 0 (no harm); 9 (complete withered)
Summary of the method: as §3

[10] = tested on: wheat; test: as above; parameters: key: 0 (no harm); 9 (complete withered)
Summary of the method: as §3

[11] = tested on: barnyard grass; test: Herbicidal activity test against upland field weeds (foliar treatment test); parameters: key to Foliar treatment herbicidal activity, barnyard grass: 0 (no control); 100 (complete control); settings: 50 g ai/ha, scale 0-100
Summary of the method: (§4)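 Visual 0–100 control ratings relative to untreated plants, taken 14 (or 21) days after spraying foliage at 50 or 75 g a.i./ha. Spray solution: 50% acetone with 0.1% Tween-20; plants kept in greenhouse at 30±5 °C, 14 h light/10 h dark.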

[12] = tested on: velvetleaf; test: as above; settings: Abutilon theophrasti, 50 g ai/ha, scale 0-100, read-out: Foliar treatment herbicidal activity, velvet leaf
Summary of the method: as §4

[13] = tested on: bindweed; test: as above; settings: 50 g ai/ha, scale 0-100
Summary of the method: as §4

[14] = tested on: quack grass; test: as above; parameters: key to Foliar treatment herbicidal activity, quack grass: 0 (no control); 100 (complete control); settings: 50 g ai/ha, scale 0-100
Summary of the method: as §4

[15] = tested on: black nightshade; test: as above; parameters: key to Foliar treatment herbicidal activity, black nightshade: 0 (no control); 100 (complete control); settings: 50 g ai/ha, scale 0-100
Summary of the method: as §4

[16] = tested on: crabgrass; test: as above; settings: Digitaria sanguinalis, 50 g ai/ha, scale 0-100
Summary of the method: as §4

[17] = tested on: indian jointvetch; test: as above; parameters: key to Foliar treatment herbicidal activity, Indian jointvetch: 0 (no control); 100 (complete control); settings: 50 g ai/ha, scale 0-100
Summary of the method: as §4

[18] = tested on: fall panicum; test: as above; settings: Panicum dichotomiflorum, 50 g ai/ha, scale 0-100
Summary of the method: as §4

[19] = tested on: sorghum; test: as above; settings: Sorghum, 50 g ai/ha, scale 0-100
Summary of the method: as §4

[20] = tested on: cocklebur; test: as above; settings: Xanthium strumarium, 50 g ai/ha, scale 0-100
Summary of the method: as §4

[21] = 50 g ai/ha, Corn (7 days after treatment)
[22] = 50 g ai/ha, Corn (14 days after treatment)
[23] = 100 g ai/ha, Corn (7 days after treatment)
[24] = 100 g ai/ha, Corn (14 days after treatment)
[25] = 50 g ai/ha, Wheat (7 days after treatment)
[26] = 50 g ai/ha, Wheat (14 days after treatment)
[27] = 100 g ai/ha, Wheat (7 days after treatment)
[28] = 100 g ai/ha, Wheat (14 days after treatment)

For `Cn1nnnc1NC(=O)c1ccc(C(F)(F)F)nc1Sc1nnnn1C` [Compound No. 1-40, N-(1-methyl-1H-tetrazol-5-yl)-2-((1-methyl-1H-tetrazol-5-yl)thio)-6-(trifluoromethyl)nicotinamide], the “Soil treatment phytotoxicity, Corn” value ([1]; 50 g ai/ha, Corn (10 days after treatment)) was 0, the “Soil treatment phytotoxicity, Corn” value ([1]; 50 g ai/ha, Corn (20 days after treatment)) was 0 and the “Soil treatment phytotoxicity, Corn” value ([1]; 100 g ai/ha, Corn (10 days after treatment)) was 0. The “Soil treatment phytotoxicity, Corn” value ([1]; 100 g ai/ha, Corn (20 days after treatment)) was 0, the “Soil treatment phytotoxicity, Soybean” value ([2]; 50 g ai/ha, Soybean (10 days after treatment)) was 0 and the “Soil treatment phytotoxicity, Soybean” value ([2]; 50 g ai/ha, Soybean (20 days after treatment)) was 0. The “Soil treatment phytotoxicity, Soybean” value ([2]; 100 g ai/ha, Soybean (10 days after treatment)) was 0, the “Soil treatment phytotoxicity, Soybean” value ([2]; 100 g ai/ha, Soybean (20 days after treatment)) was 0 and the “Soil treatment phytotoxicity, Cotton” value ([3]; 50 g ai/ha, Cotton (10 days after treatment)) was 1. For the same compound, the “Soil treatment phytotoxicity, Cotton” value ([3]; 50 g ai/ha, Cotton (20 days after treatment)) was 0, the “Soil treatment phytotoxicity, Cotton” value ([3]; 100 g ai/ha, Cotton (10 days after treatment)) was 3 and the “Soil treatment phytotoxicity, Cotton” value ([3]; 100 g ai/ha, Cotton (20 days after treatment)) was 0. For the same compound, the “Soil treatment phytotoxicity, Rice” value ([4]; 50 g ai/ha, Rice (10 days after treatment)) was 0, the “Soil treatment phytotoxicity, Rice” value ([4]; 50 g ai/ha, Rice (20 days after treatment)) was 0 and the “Soil treatment phytotoxicity, Rice” value ([4]; 100 g ai/ha, Rice (10 days after treatment)) was 0. The “Soil treatment phytotoxicity, Rice” value ([4]; 100 g ai/ha, Rice (20 days after treatment)) was 0, the “Soil treatment phytotoxicity, Wheat” value ([5]; 50 g ai/ha, Wheat (10 days after treatment)) was 0 and the “Soil treatment phytotoxicity, Wheat” value ([5]; 50 g ai/ha, Wheat (20 days after treatment)) was 0. For the same compound, the “Soil treatment phytotoxicity, Wheat” value ([5]; 100 g ai/ha, Wheat (10 days after treatment)) was 0, the “Soil treatment phytotoxicity, Wheat” value ([5]; 100 g ai/ha, Wheat (20 days after treatment)) was 0 and the “Foliar treatment phytotoxicity, Corn” value [6, 21] was 0. The “Foliar treatment phytotoxicity, Corn” value [6, 22] was 0, the “Foliar treatment phytotoxicity, Corn” value [6, 23] was 0 and the “Foliar treatment phytotoxicity, Corn” value [6, 24] was 0. The “Foliar treatment phytotoxicity, Soybean” value ([7]; 50 g ai/ha, Soybean (7 days after treatment)) was 6, the “Foliar treatment phytotoxicity, Soybean” value ([7]; 50 g ai/ha, Soybean (14 days after treatment)) was 5 and the “Foliar treatment phytotoxicity, Soybean” value ([7]; 100 g ai/ha, Soybean (7 days after treatment)) was 6. The “Foliar treatment phytotoxicity, Soybean” value ([7]; 100 g ai/ha, Soybean (14 days after treatment)) was 5, the “Foliar treatment phytotoxicity, Cotton” value ([8]; 50 g ai/ha, Cotton (7 days after treatment)) was 2 and the “Foliar treatment phytotoxicity, Cotton” value ([8]; 50 g ai/ha, Cotton (14 days after treatment)) was 3. For the same compound, the “Foliar treatment phytotoxicity, Cotton” value ([8]; 100 g ai/ha, Cotton (7 days after treatment)) was 3, the “Foliar treatment phytotoxicity, Cotton” value ([8]; 100 g ai/ha, Cotton (14 days after treatment)) was 4 and the “Foliar treatment phytotoxicity, Rice” value ([9]; 50 g ai/ha, Rice (7 days after treatment)) was 0. The “Foliar treatment phytotoxicity, Rice” value ([9]; 50 g ai/ha, Rice (14 days after treatment)) was 0, the “Foliar treatment phytotoxicity, Rice” value ([9]; 100 g ai/ha, Rice (7 days after treatment)) was 0 and the “Foliar treatment phytotoxicity, Rice” value ([9]; 100 g ai/ha, Rice (14 days after treatment)) was 1. For the same compound, the “Foliar treatment phytotoxicity, Wheat” value [10, 25] was 0, the “Foliar treatment phytotoxicity, Wheat” value [10, 26] was 0 and the “Foliar treatment phytotoxicity, Wheat” value [10, 27] was 1. For the same compound, the “Foliar treatment phytotoxicity, Wheat” value [10, 28] was 0.
In the case of `Cn1nc(COCc2nc(C(F)(F)F)ccc2C(=O)Nc2nnnn2C)nc1CF` [Compound No. 2-126, 2-(((5-(fluoromethyl)-1-methyl-1H-1,2,4-triazol-3-yl)methoxy)methyl)-N-(1-methyl-1H-tetrazol-5-yl)-6-(trifluoromethyl)nicotinamide], the pest or weed control at 50 g/ha ([11]; Echinochloa crus-galli) is reported as 80%, the pest or weed control at 50 g/ha [12] is reported as 80% and the pest or weed control at 50 g/ha [13] is reported as 20%. The “Foliar treatment herbicidal activity, quack grass” value [14] was 0, the “Foliar treatment herbicidal activity, black nightshade” value [15] was 100 and the pest or weed control at 50 g/ha [16] was 90%. For the same compound, the “Foliar treatment phytotoxicity, Corn” value [6, 21] was 1, the “Foliar treatment phytotoxicity, Corn” value [6, 22] was 1 and the “Foliar treatment phytotoxicity, Corn” value [6, 23] was 3. The “Foliar treatment phytotoxicity, Corn” value [6, 24] was 2, the “Foliar treatment phytotoxicity, Wheat” value [10, 25] was 0 and the “Foliar treatment phytotoxicity, Wheat” value [10, 26] was 0. The “Foliar treatment phytotoxicity, Wheat” value [10, 27] was 0, the “Foliar treatment phytotoxicity, Wheat” value [10, 28] was 0 and the pest or weed control at 50 g/ha [17] was 50%. The pest or weed control at 50 g/ha [18] was 80%, the plant injury at 50 g/ha [19] was 60% and the pest or weed control at 50 g/ha [20] was 90%.
In the case of `C=CCn1nnnc1NC(=O)c1ccc(C(F)(F)F)nc1COCc1ncn(C)n1` [Compound No. 2-115, N-(1-allyl-1H-tetrazol-5-yl)-2-(((1-methyl-1H-1,2,4-triazol-3-yl)methoxy)methyl)-6-(trifluoromethyl)nicotinamide], the “Foliar treatment herbicidal activity, barnyard grass” value [11] is reported as 0, the pest or weed control at 50 g/ha [12] is reported as 50% and the pest or weed control at 50 g/ha [13] is reported as 80%. The “Foliar treatment herbicidal activity, quack grass” value [14] was 0, the “Foliar treatment herbicidal activity, black nightshade” value [15] was 100 and the pest or weed control at 50 g/ha [16] was 20%. For the same compound, the “Foliar treatment phytotoxicity, Corn” value [6, 21] was 0, the “Foliar treatment phytotoxicity, Corn” value [6, 22] was 0 and the “Foliar treatment phytotoxicity, Corn” value [6, 23] was 0. The “Foliar treatment phytotoxicity, Corn” value [6, 24] was 0, the “Foliar treatment phytotoxicity, Wheat” value [10, 25] was 0 and the “Foliar treatment phytotoxicity, Wheat” value [10, 26] was 0. For the same compound, the “Foliar treatment phytotoxicity, Wheat” value [10, 27] was 0, the “Foliar treatment phytotoxicity, Wheat” value [10, 28] was 0 and the “Foliar treatment herbicidal activity, Indian jointvetch” value [17] was 0. It also gave a pest or weed control at 50 g/ha [18] of 50%, a plant injury at 50 g/ha [19] of 10% and a pest or weed control at 50 g/ha [20] of 90%.
